Measured values published in patent publication US20160362478A1, “CD4-MIMETIC SMALL MOLECULES SENSITIZE HUMAN IMMUNODEFICIENCY VIRUS TO VACCINE-ELICITED ANTIBODIES” (priority 2014, published 2016).
pIC50: −log10 of the molar value.

Assays:
[1] = system: HIV-1 transmitted/founder viruses; assay: Sensitization of transmitted/founder viruses to 3CC gp120 core antisera; format: cell-based
Method: (§1) Infection by single-round luciferase viruses. Cf2Th-CCR5-CD4 target cells were seeded at a density of 6×10^3 cells/well in 96-well luminometer-compatible tissue culture plates (PerkinElmer) 24 h before infection. […] In the case of sensitization assays, a constant concentration of compounds was incubated with virus for 30 min at 37° C.; then, 17b or other antibodies (0-100 μg/mL) were added to the virus/compound mixture and incubated for an additional 30 min at 37° C. The mixtures were then added to the target cells and incubated for 48 h at 37° C.; after this time, the medium was removed from each well, and the cells were lysed by the addition of 30 μL passive lysis buffer (Promega) and three freeze-thaw cycles. An EG&G Berthold Microplate Luminometer LB 96V was used to measure the luciferase activity of each well after the addition of 100 μL of luciferin buffer (15 mM MgSO4, 15 mM KPO4, pH 7.8, 1 mM ATP, and 1 mM dithiothreitol) and 50 μL of 1 mM Firefly D-Luciferin Free Acid 99% (Prolume).
Animal inoculations and analysis of antisera. Approximately 12-week-old female New Zealand White rabbits were housed at the AAALAC-accredited facilities at Bioqual (Rockville, Md.) under specific pathogen-free conditions. […] Serum was prepared, heat inactivated, and assessed for anti-gp120 ELISA titers and the presence neutralizing antibodies. […]

[2] = system: HIV-1 transmitted/founder viruses; assay: Inhibition and 17b sensitization of transmitted/founder viruses; format: cell-based
Method: as §1
The ability of (+)-DMJ-II-121 to sensitize HIV-1 transmitted/founder viruses to neutralization by the 17b antibody (FIG. 8A) and antisera elicited by the 3CC gp120 core immunogen (FIG. 8B) was examined. In these experiments, the recombinant viruses were pseudotyped with the HIV-1 Envs derived from HIV-1 transmitted/founder viruses. Recombinant HIV-1 pseudotyped with the primary R5 HIV-1 JR-FL and the amphotropic murine leukemia virus (A-MLV) Envs served as positive and negative controls, respectively. HIV-1 neutralization was examined in the presence of sub-neutralizing concentrations of (+)-DMJ-II-121 and different concentrations of the 17b antibody or sera.

A-MLV = assay: Infection by control virus pseudotyped with A-MLV envelope glycoproteins; format: cell-based, amphotropic murine leukemia virus; conditions: at 100 μM
Method: (§2) Recombinant luciferase viruses: 293T human embryonic kidney cells were co-transfected with plasmids expressing the pCMVΔP1Δenv HIV-1 Gag-Pol packaging construct, the R5 YU2 envelope glycoproteins, or the envelope glycoprotein of the control amphotropic murine leukemia virus (A-MLV), and the firefly luciferase-expressing vector at a DNA ratio of 1:1:3 μg using the Effectene transfection reagent (Qiagen). Co-transfection produced single-round, replication-defective viruses. The virus-containing supernatants were harvested 36-40 h after transfection, spun, aliquoted, and frozen at −80° C. until further use. The reverse transcriptase (RT) activities of all viruses were measured as described in Rho, H. M., et al. Virology 1981, 112, 355-360.
(§3) Infection by single-round luciferase viruses. Cf2Th-CCR5-CD4 target cells were seeded at a density of 6×10^3 cells/well in 96-well luminometer-compatible tissue culture plates (PerkinElmer) 24 h before infection. […] In the case of sensitization assays, a constant concentration of compounds was incubated with virus for 30 min at 37° C.; then, 17b or other antibodies (0-100 μg/mL) were added to the virus/compound mixture and incubated for an additional 30 min at 37° C. […]

[3] = biological target: wild-type HIV-1 YU2 gp120 glycoprotein (Human immunodeficiency virus type 1 group M subtype B, UniProt P35961); assay: Isothermal titration calorimetry, binding to gp120; conditions: ITC, 25° C.
Method: Isothermal Titration Calorimetry. Thermodynamic parameters for the binding of the different inhibitors to gp120 were obtained by isothermal titration calorimetry (ITC) using a VP-ITC microcalorimeter from MicroCal/GE Healthcare (Northampton, Mass., USA). The titrations were performed at 25° C. by injecting 10 μL aliquots of inhibitor solution into the calorimetric cell (volume ˜1.4 mL) containing gp120 at a concentration of 2 μM. […] In all titration experiments, gp120 and the different inhibitors were equilibrated with PBS, pH 7.4, with 2% DMSO. The heat evolved upon each injection of inhibitor was obtained by integration of the calorimetric signal. The heat associated with inhibitor binding to gp120 was obtained by subtracting the heat of dilution from the heat of reaction. The enthalpy change (ΔH) and association constant (Ka=[…]) were obtained by nonlinear regression of the data.
The thermodynamics of the binding of each compound to the wild-type HIV-1 YU2 gp120 glycoprotein was analyzed by isothermal titration calorimetry.

HIV-1 JR-FL [4] = assay: Sensitization of HIV-1 JR-FL to neutralization by rabbit antisera elicited by gp120 cores; format: cell-based
Method: as §1
Animal inoculations and analysis of antisera. Approximately 12-week-old female New Zealand White rabbits were housed at the AAALAC-accredited facilities at Bioqual (Rockville, Md.) under specific pathogen-free conditions. At 4-week intervals, rabbits were inoculated intramuscularly with […] of affinity-purified protein formulated in GlaxoSmithKline Adjuvant System AS01B by splitting the protein-adjuvant mix in the two hind legs. Serum was prepared, heat inactivated, and assessed for anti-gp120 ELISA titers and the presence neutralizing antibodies.
(+)-DMJ-I-228 and (+)-DMJ-II-121 were examined to determine if they could sensitize HIV-1 to neutralization by antisera elicited by an Env immunogen. […] These stabilized gp120 cores were derived from the laboratory-adapted HIV-1 HXBc2 strain and lack the V1, V2, and V3 variable regions. […]

HIV-1 YU2 [5] = assay: Sensitization assay: antibody neutralization of HIV-1 YU2 with CD4-mimetic compound; format: cell-based; conditions: sub-neutralizing compound concentrations
Method: as §1
The ability of (+)-DMJ-I-228 and (+)-DMJ-II-121 to each sensitize HIV-1 to neutralization by antibodies was examined using the single-round infection of Cf2Th-CD4/CCR5 cells by recombinant HIV-1 encoding firefly luciferase. The recombinant viruses were pseudotyped with the HIV-1 Envs derived from the primary R5 HIV-1 JR-FL and YU2 isolates. […]

HIV-1 JR-FL [6] = assay: Sensitization assay: antibody neutralization of HIV-1 JR-FL with CD4-mimetic compound; format: cell-based; conditions: for sensitization of HIV-1 JR-FL to neutralization by 17b and 39F antibodies: sub-neutralizing compound concentrations
Method: as §1
The ability of (+)-DMJ-I-228 and (+)-DMJ-II-121 to each sensitize HIV-1 to neutralization by antibodies was examined using the single-round infection of Cf2Th-CD4/CCR5 cells by recombinant HIV-1 encoding firefly luciferase. The recombinant viruses were pseudotyped with the HIV-1 Envs derived from the primary R5 HIV-1 JR-FL and YU2 isolates. Recombinant HIV-1 pseudotyped with the amphotropic murine leukemia virus (A-MLV) Env was used as a control for specificity. HIV-L neutralization was examined in the presence of sub-neutralizing concentrations of the CD4-mimetic compounds and different concentrations of monoclonal antibodies. […] The 17b antibody recognizes a well-conserved CD4i epitope on the HIV-1 gp120 core that is not formed or exposed in the unliganded Env of primary HIV-1 strains. The 39F antibody recognizes a conformation-dependent epitope in the gp120 V3 region of primary R5 HIV-1. […] and (+)-DMJ-II-121 each render primary HIV-1 isolates sensitive to neutralization by monoclonal antibodies directed against CD4i and V3 epitopes on the gp120 Env.

HIV-1 JR-FL [7] = assay: Infection of Cf2Th-CD4/CCR5 cells by single-round luciferase virus with HIV-1 JR-FL Env; format: cell-based; conditions: for pIC50: Human immunodeficiency virus 1, Cf2Th-CD4/CCR5, read-out: IC50, inhibition of HIV-1 JR-FL infection; for inhibition of HIV-1 JR-FL virus relative to parental NBD-556: cells expressing CD4 and CCR5
Method: as §2, §1
The ability of selected CD4-mimetic compounds to inhibit HIV-1 entry was examined. […] Recombinant HIV-1 expressing the firefly luciferase gene was pseudotyped with different envelope glycoproteins, either HIV-1 JR-FL Env or, as a control, the amphotropic murine leukemia virus (A-MLV) envelope glycoproteins. The recombinant viruses were incubated with cells expressing CD4 and CCR5 in the presence of different concentrations of the compounds.

HIV-1 JR-FL [8] = assay: Cold inactivation of recombinant virus on ice; format: cell-based; conditions: compound 50 μM
Method: Cold Inactivation. […] Cf2Th-CCR5-CD4 target cells were seeded at a density of […] cells/well in a 96-well luminometer-compatible tissue-culture plate (PerkinElmer) 24 h before infection. The mixtures were then added to target cells and incubated for 48 h at 37° C.; after this time, the medium was removed from each well, and the cells were lysed by the addition of 30 μL passive lysis buffer (Promega) and three freeze-thaw cycles. An EG&G Berthold Microplate Luminometer LB 96V was used to measure the luciferase activity of each well after the addition of 100 μL of luciferin buffer (15 mM MgSO4, 15 mM KPO4, pH 7.8, 1 mM ATP, and 1 mM dithiothreitol) and 50 μL of 1 mM Firefly D-Luciferin Free Acid 99% (Prolume).

HIV-1 YU2 [9] = assay: Infection of Cf2Th-CD4/CCR5 cells by single-round luciferase virus with HIV-1 YU2 Env; format: cell-based; conditions: Human immunodeficiency virus 1, Cf2Th-CD4/CCR5, read-out: IC50, inhibition of HIV-1 YU2 infection
Method: as §2, §3

HIV-1 = assay: Inhibition of HIV-1 infection (overview statement); format: cell-based; conditions: Human immunodeficiency virus 1, read-out: IC50, inhibition of HIV-1 infection
[10] = system: primary CD4 T cells infected with transmitted/founder (T/F) viruses and their 6-month counterparts; assay: Recognition of primary CD4 T cells infected with primary HIV-1 by HIV-1+ sera; format: cell-based, human; conditions: data not shown
[11] = biological target: HIV-1 YU2 envelope glycoproteins (Env) (HIV-1 YU2) (UniProt P35961); assay: cell-based or functional assay
[12] = biological target: HIV-1 JR-FL envelope glycoproteins (Env) (HIV-1 JR-FL); assay: cell-based or functional assay

Row | Molecule | inhibition of A-MLV infection (A-MLV) | ability to bind monomeric gp120 relative to NBD-556 [3] | sensitization of HIV-1 YU2 to neutralization by 17b and 39F antibodies (HIV-1 YU2 [5]) | sensitization of HIV-1 JR-FL to neutralization by 17b and 39F antibodies (HIV-1 JR-FL [6]) | pIC50 (HIV-1 JR-FL [7]) | inhibition of HIV-1 JR-FL virus relative to parental NBD-556 (HIV-1 JR-FL [7]) | half-life of HIV-1 JR-FL infectivity on ice in the presence of the compound (HIV-1 JR-FL [8]) | pIC50 (HIV-1 YU2 [9]) | pIC50 (HIV-1) | neutralization of pseudotyped virus, no CD4-mimetic compound [11] | neutralization of pseudotyped virus, no CD4-mimetic compound [12] | other results
1 | N=C(N)NC[C@H]1Cc2ccccc2[C@@H]1NC(=O)C(=O)Nc1ccc(Cl)c(F)c1 [(+)-DMJ-II-121] | Neither (+)-DMJ-I-228 nor (+)-DMJ-II-121 inhibited A-MLV infection | significant improvement in the ability to bind monomeric gp120 | each sensitized HIV-1 YU2 and JR-FL to neutralization by the 17b and 39F antibodies | each sensitized HIV-1 YU2 and JR-FL to neutralization by the 17b and 39F antibodies | 4.56 | specifically inhibited the HIV-1 JR-FL virus with an improved potency | 1.9 h | 5.44 | 5.64 | – | – | sensitivity of TD12 and B5 transmitted/founder viruses to 3CC antisera in the presence of compound [1]: increased sensitivity to neutralization by 3CC antisera; number of transmitted/founder viruses sensitive to compound inhibition but not sensitized to 17b neutralization [2]: Three; sensitivity of transmitted/founder virus TA5 to the compound alone ([2]; TA5 virus): did not exhibit sensitivity; number of 17b-resistant transmitted/founder HIV-1 sensitized to neutralization by the 17b antibody ([2]; of ten 17b-resistant viruses, 50 μM compound): six; sensitization of HIV-1 JR-FL to neutralization by sera from rabbits immunized with 3CC or 4CC stabilized gp120 cores (HIV-1 JR-FL [4]): sensitized HIV-1 JR-FL to neutralization; sera elicited by non-stabilized V3S core that neutralized HIV-1 JR-FL after incubation with compound (HIV-1 JR-FL [4]): None of the rabbit sera; sera from rabbits immunized with the 2CC gp120 core that neutralized HIV-1 JR-FL only in the presence of compound (HIV-1 JR-FL [4]; five sera): Three of the five sera
2 | N=C(N)N[C@H]1Cc2ccccc2[C@@H]1NC(=O)C(=O)Nc1ccc(Cl)c(F)c1 [(+)-DMJ-I-228] | Neither (+)-DMJ-I-228 nor (+)-DMJ-II-121 inhibited A-MLV infection | significant improvement in the ability to bind monomeric gp120 | each sensitized HIV-1 YU2 and JR-FL to neutralization by the 17b and 39F antibodies | each sensitized HIV-1 YU2 and JR-FL to neutralization by the 17b and 39F antibodies | 4.06 | specifically inhibited the HIV-1 JR-FL virus with an improved potency | 9.1 h | 4.33 | 4.64 | – | – | recognition of cells infected with four primary viruses by HIV-1+ sera [10]: significantly enhance recognition
3 | CC1(C)CC(NC(=O)C(=O)Nc2ccc(Cl)cc2)CC(C)(C)N1 [NBD-556, reference compound] | – | – | – | – | – | – | 15.7 h | – | – | – | – | effect on neutralization of HIV-1 JR-FL by the 17b antibody (HIV-1 JR-FL [6]): minimally affected; effect on neutralization of HIV-1 JR-FL by the 39F antibody (HIV-1 JR-FL [6]; only at high concentrations): weakly increase
4 | 39F antibody | – | – | – | – | – | – | – | – | – | > 100 µg/mL | > 100 µg/mL | –
5 | 17b antibody | – | – | – | – | – | – | – | – | – | > 100 µg/mL | > 100 µg/mL | IC50, inhibition of HIV-1 JR-FL entry into cells co-expressing CD4 and CCR5, in the presence of 30 µM (+)-DMJ-II-121 [12]: 0.6 µg/mL
